From article PMC8333062, “Chemical tools for epichaperome-mediated interactome dysfunctions of the central nervous system” (Nature Communications, 2021)

Tests used:
Assay in all cases: General side effect profile (SEP) II diversity panel
Assay type in all cases: binding
[1] = target: T1, 70 key receptor, enzyme, and ion channel proteins (Homo sapiens, UniProt P07550); conditions: 1.0E-5 M
T1 construct: purchased Caliper Life Sciences (now PerkinElmer), NOVASCREEN General SEP II

[2] = target: T2, 70 key receptor, enzyme, and ion channel proteins (Homo sapiens, UniProt P08172); conditions: 1.0E-5 M
T2 construct: purchased Caliper Life Sciences (now PerkinElmer), NOVASCREEN General SEP II
T2 sequence (P08172 whole entry): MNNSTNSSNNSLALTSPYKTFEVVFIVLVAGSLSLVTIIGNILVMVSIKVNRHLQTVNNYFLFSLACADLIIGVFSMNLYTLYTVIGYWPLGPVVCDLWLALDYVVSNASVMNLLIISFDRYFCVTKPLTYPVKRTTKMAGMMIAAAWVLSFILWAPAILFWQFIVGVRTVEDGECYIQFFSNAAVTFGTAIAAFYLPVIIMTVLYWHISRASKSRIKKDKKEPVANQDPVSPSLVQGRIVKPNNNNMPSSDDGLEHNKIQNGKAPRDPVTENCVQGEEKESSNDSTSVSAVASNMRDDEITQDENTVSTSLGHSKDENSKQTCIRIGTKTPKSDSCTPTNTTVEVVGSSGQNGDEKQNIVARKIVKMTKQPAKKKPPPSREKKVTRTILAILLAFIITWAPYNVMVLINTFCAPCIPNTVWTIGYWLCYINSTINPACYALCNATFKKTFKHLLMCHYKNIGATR

[3] = target: T3, 70 key receptor, enzyme, and ion channel proteins (Homo sapiens, UniProt P08908)
T3 construct: purchased Caliper Life Sciences (now PerkinElmer), NOVASCREEN General SEP II

[4] = target: 70 key receptor, enzyme, and ion channel proteins (Homo sapiens, UniProt P11229)
Chain of 70 key receptor, enzyme, and ion channel proteins (Homo sapiens, UniProt P11229) (P11229 whole entry): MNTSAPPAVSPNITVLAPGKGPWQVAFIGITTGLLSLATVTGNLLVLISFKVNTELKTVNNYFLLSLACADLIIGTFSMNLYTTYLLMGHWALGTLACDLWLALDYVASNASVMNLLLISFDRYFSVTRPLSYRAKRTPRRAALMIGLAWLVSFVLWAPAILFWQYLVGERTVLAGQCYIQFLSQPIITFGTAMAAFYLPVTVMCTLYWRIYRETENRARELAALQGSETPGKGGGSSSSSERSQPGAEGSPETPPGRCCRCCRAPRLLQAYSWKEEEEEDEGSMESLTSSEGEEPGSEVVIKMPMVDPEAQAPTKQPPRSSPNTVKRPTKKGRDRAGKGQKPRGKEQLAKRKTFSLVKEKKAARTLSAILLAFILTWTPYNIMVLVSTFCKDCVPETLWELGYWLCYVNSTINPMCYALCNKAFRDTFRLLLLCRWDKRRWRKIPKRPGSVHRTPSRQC

[5] = target: T4, 70 key receptor, enzyme, and ion channel proteins (Homo sapiens, UniProt P17612); conditions: 1.0E-5 M
T4 construct: purchased Caliper Life Sciences (now PerkinElmer), NOVASCREEN General SEP II

[6] = target: T5, 70 key receptor, enzyme, and ion channel proteins (Homo sapiens, UniProt P20309)
T5 construct: purchased Caliper Life Sciences (now PerkinElmer), NOVASCREEN General SEP II
T5 sequence (P20309 whole entry): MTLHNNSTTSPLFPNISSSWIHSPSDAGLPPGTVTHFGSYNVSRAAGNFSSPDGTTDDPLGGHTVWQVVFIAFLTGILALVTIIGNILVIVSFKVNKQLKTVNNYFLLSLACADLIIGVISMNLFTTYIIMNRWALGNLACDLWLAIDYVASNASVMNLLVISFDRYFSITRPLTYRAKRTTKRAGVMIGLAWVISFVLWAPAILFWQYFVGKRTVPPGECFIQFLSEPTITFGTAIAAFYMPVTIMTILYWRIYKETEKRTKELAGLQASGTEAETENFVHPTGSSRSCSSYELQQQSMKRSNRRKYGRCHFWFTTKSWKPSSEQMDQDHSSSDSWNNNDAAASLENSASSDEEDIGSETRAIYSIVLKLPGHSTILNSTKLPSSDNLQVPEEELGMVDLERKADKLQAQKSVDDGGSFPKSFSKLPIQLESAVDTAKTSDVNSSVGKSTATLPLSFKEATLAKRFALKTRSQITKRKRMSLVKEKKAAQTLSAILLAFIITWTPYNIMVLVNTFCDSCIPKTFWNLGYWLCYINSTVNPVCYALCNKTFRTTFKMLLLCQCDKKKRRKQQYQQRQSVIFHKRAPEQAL

[7] = target: T6, 70 key receptor, enzyme, and ion channel proteins (Homo sapiens, UniProt P21728); conditions: 1.0E-5 M
T6 construct: purchased Caliper Life Sciences (now PerkinElmer), NOVASCREEN General SEP II
T6 sequence (P21728 whole entry): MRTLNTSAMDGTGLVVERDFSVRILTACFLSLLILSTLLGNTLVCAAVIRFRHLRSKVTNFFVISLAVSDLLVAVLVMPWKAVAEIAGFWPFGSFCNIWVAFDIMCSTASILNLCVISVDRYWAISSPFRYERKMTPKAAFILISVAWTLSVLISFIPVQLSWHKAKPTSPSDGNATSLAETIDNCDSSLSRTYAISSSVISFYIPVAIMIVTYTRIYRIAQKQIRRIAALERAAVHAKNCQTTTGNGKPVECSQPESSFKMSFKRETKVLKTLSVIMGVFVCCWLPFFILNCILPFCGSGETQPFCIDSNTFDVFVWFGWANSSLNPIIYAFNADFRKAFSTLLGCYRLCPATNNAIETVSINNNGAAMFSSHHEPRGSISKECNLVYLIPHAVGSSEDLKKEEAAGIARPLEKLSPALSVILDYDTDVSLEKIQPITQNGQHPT

[8] = target: T7, 70 key receptor, enzyme, and ion channel proteins (Homo sapiens, UniProt P21731); conditions: 1.0E-5 M
T7 construct: purchased Caliper Life Sciences (now PerkinElmer), NOVASCREEN General SEP II
T7 sequence (P21731 whole entry): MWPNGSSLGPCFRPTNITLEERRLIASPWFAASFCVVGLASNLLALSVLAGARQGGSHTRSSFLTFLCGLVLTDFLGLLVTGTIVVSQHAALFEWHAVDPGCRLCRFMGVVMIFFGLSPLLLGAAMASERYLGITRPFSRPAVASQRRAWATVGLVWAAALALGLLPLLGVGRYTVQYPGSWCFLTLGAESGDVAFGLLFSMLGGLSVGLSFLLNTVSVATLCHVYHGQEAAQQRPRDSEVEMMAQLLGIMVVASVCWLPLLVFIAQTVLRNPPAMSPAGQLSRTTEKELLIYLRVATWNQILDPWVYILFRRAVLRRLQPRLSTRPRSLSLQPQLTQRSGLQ

[9] = target: T8, 70 key receptor, enzyme, and ion channel proteins (Homo sapiens, UniProt P21917); conditions: 1.0E-5 M
T8 construct: purchased Caliper Life Sciences (now PerkinElmer), NOVASCREEN General SEP II
T8 sequence (P21917 whole entry): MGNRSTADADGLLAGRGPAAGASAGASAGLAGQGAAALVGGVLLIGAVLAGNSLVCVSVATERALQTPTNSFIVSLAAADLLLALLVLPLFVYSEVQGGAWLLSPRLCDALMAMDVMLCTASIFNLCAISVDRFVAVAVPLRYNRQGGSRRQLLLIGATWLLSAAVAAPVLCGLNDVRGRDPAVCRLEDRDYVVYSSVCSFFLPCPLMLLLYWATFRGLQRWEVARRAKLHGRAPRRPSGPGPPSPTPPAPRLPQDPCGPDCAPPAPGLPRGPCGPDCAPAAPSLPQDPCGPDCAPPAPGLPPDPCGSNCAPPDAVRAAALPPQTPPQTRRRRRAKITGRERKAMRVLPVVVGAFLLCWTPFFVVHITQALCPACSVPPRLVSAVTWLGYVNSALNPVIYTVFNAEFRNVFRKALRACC

[10] = target: T9, 70 key receptor, enzyme, and ion channel proteins (Homo sapiens, UniProt P25101); conditions: 1.0E-5 M
T9 construct: purchased Caliper Life Sciences (now PerkinElmer), NOVASCREEN General SEP II
T9 sequence (P25101 21-427): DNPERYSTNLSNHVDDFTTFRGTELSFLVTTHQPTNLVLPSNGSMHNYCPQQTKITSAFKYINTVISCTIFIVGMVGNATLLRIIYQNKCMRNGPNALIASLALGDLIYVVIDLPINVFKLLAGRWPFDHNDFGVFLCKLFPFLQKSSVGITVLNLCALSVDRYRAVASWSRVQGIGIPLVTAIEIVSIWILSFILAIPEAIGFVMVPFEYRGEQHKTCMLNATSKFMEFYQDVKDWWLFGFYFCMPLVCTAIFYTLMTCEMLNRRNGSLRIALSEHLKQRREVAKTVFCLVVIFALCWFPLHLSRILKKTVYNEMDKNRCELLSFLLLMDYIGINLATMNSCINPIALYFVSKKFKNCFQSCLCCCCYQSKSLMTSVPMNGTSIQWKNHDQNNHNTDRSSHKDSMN

[11] = target: T10, 70 key receptor, enzyme, and ion channel proteins (Homo sapiens, UniProt P29274); conditions: 1.0E-5 M
T10 construct: purchased Caliper Life Sciences (now PerkinElmer), NOVASCREEN General SEP II

[12] = target: T11, 70 key receptor, enzyme, and ion channel proteins (Homo sapiens, UniProt P34969); conditions: 1.0E-5 M
T11 construct: purchased Caliper Life Sciences (now PerkinElmer), NOVASCREEN General SEP II

[13] = target: 70 key receptor, enzyme, and ion channel proteins (Homo sapiens, UniProt P35372)
Chain of 70 key receptor, enzyme, and ion channel proteins (Homo sapiens, UniProt P35372) (P35372 whole entry): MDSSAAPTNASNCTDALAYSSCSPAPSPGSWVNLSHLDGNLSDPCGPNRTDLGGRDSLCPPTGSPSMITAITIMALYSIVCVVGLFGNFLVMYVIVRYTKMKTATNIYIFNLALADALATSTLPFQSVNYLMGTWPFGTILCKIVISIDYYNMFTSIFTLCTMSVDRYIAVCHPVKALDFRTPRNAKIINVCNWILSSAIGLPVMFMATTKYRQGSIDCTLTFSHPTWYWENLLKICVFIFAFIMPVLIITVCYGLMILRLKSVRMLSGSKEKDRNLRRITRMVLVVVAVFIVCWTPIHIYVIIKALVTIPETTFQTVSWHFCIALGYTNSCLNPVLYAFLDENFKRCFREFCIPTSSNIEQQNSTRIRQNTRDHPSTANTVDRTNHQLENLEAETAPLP

[14] = target: T12, 70 key receptor, enzyme, and ion channel proteins (Homo sapiens, UniProt P49146); conditions: 1.0E-5 M
T12 construct: purchased Caliper Life Sciences (now PerkinElmer), NOVASCREEN General SEP II

[15] = target: T13, 70 key receptor, enzyme, and ion channel proteins (Homo sapiens, UniProt Q99808); conditions: 1.0E-5 M
T13 construct: purchased Caliper Life Sciences (now PerkinElmer), NOVASCREEN General SEP II

[16] = target: T14, hERG potassium channel (IKr) (Homo sapiens, UniProt Q12809); conditions: human; 1.0E-5 M; read-out: Percent Inhibition: Potassium Channel, I [Kr] (hERG) (h)
T14 construct: purchased Caliper Life Sciences (now PerkinElmer), NOVASCREEN General SEP II
T14 sequence (Q12809 whole entry): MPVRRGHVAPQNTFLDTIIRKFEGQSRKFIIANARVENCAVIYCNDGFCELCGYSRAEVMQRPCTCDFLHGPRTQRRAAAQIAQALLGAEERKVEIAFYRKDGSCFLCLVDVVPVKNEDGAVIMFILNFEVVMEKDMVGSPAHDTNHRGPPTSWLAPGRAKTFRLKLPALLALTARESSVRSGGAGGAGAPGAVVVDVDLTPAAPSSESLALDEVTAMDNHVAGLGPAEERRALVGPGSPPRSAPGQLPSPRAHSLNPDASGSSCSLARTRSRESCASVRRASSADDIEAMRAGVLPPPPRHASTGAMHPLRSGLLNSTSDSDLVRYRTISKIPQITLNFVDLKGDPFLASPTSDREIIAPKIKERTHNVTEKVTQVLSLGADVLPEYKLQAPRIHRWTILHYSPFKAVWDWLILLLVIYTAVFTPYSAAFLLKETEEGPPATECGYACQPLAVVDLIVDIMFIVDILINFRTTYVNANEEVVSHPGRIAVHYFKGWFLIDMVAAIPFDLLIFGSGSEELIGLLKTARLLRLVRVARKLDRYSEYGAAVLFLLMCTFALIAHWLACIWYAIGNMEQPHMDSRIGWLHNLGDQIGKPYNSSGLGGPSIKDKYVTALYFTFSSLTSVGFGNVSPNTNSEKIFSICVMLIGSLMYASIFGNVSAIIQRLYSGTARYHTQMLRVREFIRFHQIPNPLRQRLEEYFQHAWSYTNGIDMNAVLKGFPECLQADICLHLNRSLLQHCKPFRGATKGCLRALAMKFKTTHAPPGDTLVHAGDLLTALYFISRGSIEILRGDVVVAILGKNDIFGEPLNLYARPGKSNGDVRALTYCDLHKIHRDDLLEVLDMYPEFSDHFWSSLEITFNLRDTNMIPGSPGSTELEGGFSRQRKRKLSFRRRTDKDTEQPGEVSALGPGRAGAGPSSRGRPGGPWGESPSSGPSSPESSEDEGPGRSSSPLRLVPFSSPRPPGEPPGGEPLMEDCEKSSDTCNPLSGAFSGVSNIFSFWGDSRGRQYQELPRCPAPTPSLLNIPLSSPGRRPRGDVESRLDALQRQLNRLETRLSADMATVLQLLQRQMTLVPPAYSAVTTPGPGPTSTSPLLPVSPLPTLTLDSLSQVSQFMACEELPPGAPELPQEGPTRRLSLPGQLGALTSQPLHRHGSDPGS

CC(C)(C)CNCCn1c(Sc2cc3c(cc2I)OCO3)nc2c(N)ncnc21 [Compound 85]
Percent Inhibition: Adrenergic, Beta 2 (h) [1]: 3.05% | Percent Inhibition: Muscarinic, M2 (h) [2]: 45.44% | Percent Inhibition: Serotonin, 5HT1A (h) [3]: -16.30% | Percent Inhibition: Muscarinic, Ml (hr) [4]: 26.84% | Percent Inhibition: Kinase, Protein, PKA (h) [5]: 0.09% | Percent Inhibition: Muscarinic, M3 (h) [6]: 50.76% | Percent Inhibition: Dopamine, Dl (h) [7]: 8.03% | Percent Inhibition: Thromboxane AZ (h) [8]: 20.84% | Percent Inhibition: Dopamine, D4. 4 (h) [9]: 10.85% | Percent Inhibition: Endothelin, ET-A (h) [10]: 13.54% | Percent Inhibition: Adenosine, A2A (h) [11]: 0.79% | Percent Inhibition: Serotonin, 5HT7 (h) [12]: 14.36% | Percent Inhibition: Opioid, Mu (h) [13]: 56.70% | Percent Inhibition: Neuropeptide, NPY2 (h) [14]: 28.79% | Percent Inhibition: Adenosine Transporter (h) [15]: -3.54% | inhibition at 10 µM [16]: -18%
